The subject of data set [1] is CCl4 induced liver fibrosis mice. The experiment in a line: CCl4 induced liver fibrosis mice: liver appearance, body weight, HE, Sirius red, IHC (αSMA, COL1α1, CD68). It is filed as in vivo, mouse. Particulars: CCl4 induced liver fibrosis mice; administration dosages of 0.5 mg kg−1 and 2 mg kg−1; in words. On the procedure:
Male mice liver fibrosis was induced by intraperitoneal injection of 20% CCl4 (Sigma, USA) diluted in corn oil (Aladdin, China) every 3 days for 6 weeks (n = 6; 5 ml kg^−1 body weight). Mice injected with equivalent volume of corn oil serves as control group (n = 6). Liver fibrosis mice treated with JT003 for 3 weeks were used to evaluated the pharmacological effects (n = 6; 500 μg kg^−1; daily intraperitoneal injection).
The levels of TG and HYP in liver tissue were detected with certain commercial assay kit (Nanjing Jiancheng Bioengineering Institute, China). Formalin-fixed liver tissues were embedded in paraffin, sectioned into 5 μm slices. After deparaffinization and rehydration of the section slices, they were stained with Haematoxylin and Eosin or Periodic Acid-Schiff. For the detection of liver collagen content, Sirius Red staining for collagen was performed. OCT-embedded frozen liver tissues were sectioned into 12 μm slices, and Oil Red O staining was performed. The cryostat-cut slices were stained with freshly prepared Oil Red O working solution for 7 min Two independent experimenters who were blinded to the treatment evaluated the staining slides and analyzed the score for steatosis, glucogen accumulation and collagen proliferation area.
Paraffin-embedded liver slices were deparaffinized and rehydrated, antigen retrieval was performed under the high pressure and temperature in 0.01 M sodium citrate buffer (pH = 6.0). To quench the endogenous peroxidase activity, the slices were then incubated with 1% hydrogen peroxide in methanol for 10 min in room temperature. Then slices were incubated with corresponding primary antibodies. After washing, HRP-conjugated secondary antibodies specific to the species of the primary antibodies were used. After the section were developed with DAB, hematoxylin staining was performed for cell counting.

In data set [2] the test system is HepG2 cells. As to the kind of experiment: PA induced lipid accumulation, Oil Red O staining. It is filed as cell-based, human. Particulars: HepG2, 0.25 mM PA + 200 μM peptide, 24 h; in words. On the procedure: Hepatoma carcinoma cell line HepG2 and human hepatic activated stellate cell line LX2 used in this study were purchased from Type Culture Collection of the Chinese Academy of Sciences (Shanghai, China). Cells were cultured in Dulbecco’s modified Eagle’s medium (DMEM) with 10% fetal bovine serum (FBS), supplemented with 1% penicillin–streptomycin (ThermoFisher Scientific, USA) at 37 °C in a humidified atmosphere of 5% CO2. In PA (Sigma, USA) induced lipid accumulation cell model, HepG2 cells were seeded into a 6-well plate at 5E5 cells per well. 0.25 mM PA and/or 200 μM candidate peptides were co-incubated with cells for 24 h. Then Oil Red O staining was performed to evaluate the accumulation of lipid droplets. BSA (Sigma, USA) was used in this experiment as the negative control. For LX2 cells, 2E5 cells were seeded, then the adherent cells were exposed to 200 μM candidate peptides for another 48 h. Next, the cell protein was obtained and western blotting was performed. Candidate peptides were diluted in DMEM in a stock concentration of 1 M.

Data set [3] is described as follows: Pharmacokinetic assay in SD rats. Type of data set: in vivo, rat. On the procedure:
Male SpragueDawley (SD) rats were randomly divided into two groups (n = 3 per group) and received a single intravenous dose of JT003 (0.5 mg/kg) or ADP355 (1.0 mg kg^−1) respectively. Blood samples were collected at 5, 15, 30, 45 min and 1, 2, 3 h following the injection, and then were immediately centrifuged (4000g, 10 min, 4 °C) to obtain plasma samples. Plasma concentrations of the two peptides were measured by LC-MS/MS (ThermoFisher Scientific, USA). Pharmacokinetic parameters of JT003 and ADP355 were calculated using non-compartmental analysis in Phoenix WinNonlin (version 8.0, Pharsight, USA). The concentration values less than the LLOQ were set to zero for the analysis.

The nature of data set [4]: Serum stability assay (RP-HPLC). It is filed as in vitro ADME. Particulars: for Fraction of peptide remaining, Supplementary Figure 5: mouse serum, time 0 (unit not given); for remaining at 0.5 h, 5 mM: time 0.5 (unit inferred); for remaining at 1 h, 5 mM: time 1 (unit inferred); for remaining at 1.5 h, 5 mM: time 1.5 (unit inferred); for remaining at 2 h, 5 mM: time 2 (unit inferred); for remaining at 2.5 h, 5 mM: time 2.5 (unit inferred); for remaining at 4 h, 5 mM: time 4 (unit inferred); for remaining at 6 h, 5 mM: time 6 (unit inferred). On the procedure: The stability of candidate peptides was investigated following procedure. […] Ice-cold acetonitrile was added to terminate the reaction. Vortex and stand for 1 min, deionized water with 1% TFA was added to the mixture to further terminate the reaction. Mixtures were then centrifuged (13,000g, 10 min) to obtain the supernatant. RP-HPLC-MS was applied to analysis the content of candidate peptides. The serum stability of candidate peptides was represented as the retention rate of each peptide.

Data set [5] has as its system AdipoR1 and AdipoR2 on HepG2 and LX2 cells. The experiment in a line: Cell confocal imaging, receptor binding of FITC labeled peptide (with AdipoR siRNA). The arrangement: species or system human. Particulars: 37 °C, 2 or 4 h, AdipoR1/AdipoR2 siRNA as control, in words. The method, then:
For in vitro receptor binding assay, 4E4 HepG2 cells or 2E4 LX2 cells were seeded on 35 mm glass bottom dish with 150 μL complete medium. Then cells were incubated with FITC labeled peptide for 4 h. The nuclei were stained with Hoechst 33342 (ThermoFisher, Scientific, USA). After washing with PBS, cells were visualized in a laser confocal microscope (Olympus FV3000, Japan). Cells with suppressed AdipoR1 and AdipoR2 expression with each specific siRNA were used as negative control.
AdipoR1 and AdipoR2 siRNA as well as mock siRNA were chemically synthesized (GenePharma, China) and transfected into 60–70% confluent HepG2 and LX2 cells using Lipofectamine 3000 (ThermoFisher Scientific, USA). Dilution of siRNA and Lipofectamine 3000 reagents as well as the transfection of cells were performed following the manufacturer’s protocol. For HepG2 cell model, 5E5 cells were plated in 6-well plates and transfected with 5 μL of 20 μM stock siRNA. At 48 h following transfection, the cells were processed for 0.25 mM PA and/or 200 μM JT003 treated for another 24 h. BSA was used as the negative control. For LX2 cell model, 2E5 cells were plated in 6-well plates and transfected with 5 μL of 20 μM stock siRNA. At 48 h following transfection, the cells were processed for JT003 or PBS treated for another 48 h. Next, cells were harvested for either western blot or qPCR assay.

[6] abbreviates: Sprague-Dawley, rat, male SD rats, single iv dose: JT003 0.5 mg/kg, ADP355 1.0 mg/kg, plasma, LC-MS/MS, non-compartmental, Mean ± SD, n = 3-6.
Setting [7] is: mouse, replicate 1, read-out: Fraction of peptide remaining, Supplementary Figure 5.
Where [8] appears, read: mouse, replicate 2, read-out: Fraction of peptide remaining, Supplementary Figure 5.
Setting [9] is: mouse, replicate 3, read-out: Fraction of peptide remaining, Supplementary Figure 5.

“And” between values parts separate entries of the source, which are not always exact repeats. Equal values may be shown once. Read-outs that look alike come from different tables or passages of the source. Non-standard residues stand in square brackets, D forms with d. Residues, ends and D or L forms follow the SMILES beside them. No end group written: not given here. Nva = CCC[C@H](N)C(=O)O

On to `CCC[C@H](NC(=O)[C@@H]1CCCN1C(=O)[C@@H](NC(=O)[C@H](N)CC(N)=O)[C@@H](C)CC)C(=O)N[C@@H](CC(C)C)C(=O)N[C@@H](Cc1ccc(O)cc1)C(=O)N[C@H](CO)C(=O)N[C@@H](Cc1ccccc1)C(=O)N[C@@H](C)C(=O)N[C@H](CO)C(N)=O` [ADP355] (H-[dN]IP[Nva]LY[dS]FA[dS]-NH2; N-terminus and C-terminus assumed), for which the “inflammation, necrosis and fibrosis area (HE and sirius red staining)” value in data set [1] is recorded as “not notably raised”. Also, the “lipid droplets accumulation caused by PA (Oil Red O)” value in data set [2] is reported as “could be reduced”. Besides, the “time for which plasma concentrations were measurable” value in data set [3] (SD rats, after intravenous administration, ADP355 1.0 mg/kg) is reported as 45 min. Further, the half-life in data set [3] (SD rats, iv, authors' response to reviewers) is 6 min. For the same compound, in data set [3] (setting [6]), the AUC(0-inf) amounted to 134 ± 19.9 ng·h/mL, the AUC(0-t) turned out to be 134 ± 19.9 ng·h/mL, the MRT amounted to 5.4 ± 0.6 min and the clearance was 126 mL/min/kg. Moreover, the Vd in data set [3] (Sprague-Dawley, rat, male SD rats, single iv dose: JT003 0.5 mg/kg, ADP355 1.0 mg/kg, plasma, LC-MS/MS, non-compartmental, Mean ± SD, n = 3-6, read-out: V) worked out at 1.06 ± 0.21 L/kg. The t1/2 in data set [3] (male SD rats, single iv dose: JT003 0.5 mg/kg, ADP355 1.0 mg/kg, plasma, LC-MS/MS, non-compartmental, Mean ± SD, n = 3-6 (n = 3 per group)) is 6 ± 0.6 min and 6 min.
On to “PGLYYFD-NH2 (C-terminus assumed) [Pep70]”, for which the “Fraction of peptide remaining, Supplementary Figure 5” value (“Fraction of peptide remaining” for short) in data set [4] (replicate 1) stood at 0.9901. In addition, in data set [4] (replicate 2), the “Fraction of peptide remaining” value came to 1.005. The “Fraction of peptide remaining” value in data set [4] (replicate 3) is listed as 0.9939. For the same compound, in data set [4] (setting [7]), the amount remaining at 0.5 h, 5 mM is 96.7%; the share remaining at 1 h, 5 mM is 82.5%; the fraction remaining at 1.5 h, 5 mM is 80.8%; the amount remaining at 2 h, 5 mM was 50.5%. Further, in data set [4] (setting [7]), the share remaining at 2.5 h, 5 mM amounted to 26.1%; the amount remaining at 4 h, 5 mM worked out at 23.9%; the fraction remaining at 6 h, 5 mM is 2.28%. For the same compound, in data set [4] (setting [8]), the share remaining at 0.5 h, 5 mM turned out to be 98.6%; the amount remaining at 1 h, 5 mM is 84%; the amount remaining at 1.5 h, 5 mM was determined as 82.6%; the share remaining at 2 h, 5 mM was found to be 53.4%. In addition, in data set [4] (setting [8]), the share remaining at 2.5 h, 5 mM was found to be 27.2%; the fraction remaining at 4 h, 5 mM was 24.2%; the share remaining at 6 h, 5 mM was determined as 2.13%. For the same compound, in data set [4] (setting [9]), the fraction remaining at 0.5 h, 5 mM amounted to 94.9%; the fraction remaining at 1 h, 5 mM was 83.1%; the amount remaining at 1.5 h, 5 mM came to 83.7%; the share remaining at 2 h, 5 mM is 47.2%. Moreover, in data set [4] (setting [9]), the fraction remaining at 2.5 h, 5 mM was 27.2%; the fraction remaining at 4 h, 5 mM amounted to 23.5%; the amount remaining at 6 h, 5 mM was found to be 2.33%. Besides, the fraction remaining at 3 h, 5 mM in data set [4] (mouse, time 3 (unit inferred), replicate 1, read-out: Fraction of peptide remaining, Supplementary Figure 5) came to 29.9%. Further, the share remaining at 3.5 h, 5 mM in data set [4] (mouse, time 3.5 (unit inferred), replicate 1, read-out: Fraction of peptide remaining, Supplementary Figure 5) came to 29.3%.
For the compound `CCC[C@H](NC(=O)[C@@H]1CCCN1)C(=O)N[C@@H](CC(C)C)C(=O)N[C@@H](Cc1ccc(O)cc1)C(=O)N[C@@H](CO)C(=O)N[C@@H](Cc1ccccc1)C(=O)N[C@@H](CC(=O)O)C(N)=O` [JT006] (H-P[Nva]LYSFD-NH2), the “binding to AdipoRs on the cell membrane (confocal, FITC)” value in data set [5] is “could not bind to the AdipoRs specifically”. In addition, in data set [2], the “lipid droplets accumulation caused by PA (Oil Red O)” value is reported as “little prevention of palmitic acid induced lipid droplets”.

The half-life is how long it takes for the measured level to halve. The low end stands for rapid decline, the high end for slow decline. The term AUC(0-inf) denotes the area under the concentration-time curve extrapolated to infinity. Broadly, the AUC(0-t) is exposure summed from dosing to a finite time, without extrapolation to infinity. Usually MRT stands for a mean duration of stay, worked out from the concentration-time curve. As usually defined, the clearance is a measure of how efficiently the substance is removed, as volume per time. The share remaining is what is left of the initial amount, in per cent.

The values are drawn from publication PMC7669869, “AdipoR1/AdipoR2 dual agonist recovers nonalcoholic steatohepatitis and related fibrosis via endoplasmic reticulum-mitochondria axis” (Nature Communications, 2020).
